Measured values from patent publication US20240207292A1, “BORONIC ACID COMPOUNDS, COMPOSITIONS AND METHODS” (Trustees of Tufts College, priority 2021, published 2024).
Square brackets hold non-standard residues; d marks the D form. Peptide text beside a SMILES is read from it. * marks the point of attachment. DOTAGA = O=C(O)CN1CCN(CC(=O)O)CCN(C(CCC(=O)*)C(=O)O)CCN(CC(=O)O)CC1; DOTA = O=C(O)CN1CCN(CC(=O)O)CCN(CC(=O)*)CCN(CC(=O)O)CC1; boroPro = OB(O)[C@@H]1CCCN1*

target: recombinant human prolyl oligopeptidase (PREP) (Homo sapiens (Human), UniProt P48147); assay: In vitro assay prolyl oligopeptidase IC50 (Example 21); type: biochemical; conditions: not given
Method: (§1) The purpose of this assay is to determine the IC50 of various inhibitors against recombinant human dipeptidyl peptidase IV (DPPIV), fibroblast activation protein (FAP) or prolyl oligopeptidase (PREP).
(§2) The assays are conducted in the following steps: • 1 Dissolve the compound in DMSO to a final concentration of 100 mM. From this, prepare a 1 mM stock at pH 7.5 in 50 mM Tris, 140 mM NaCl Buffer (FAP)/pH 7.5 in 25 mM Tris, 250 mM NaCl Buffer/[…]. • 2. Serial dilute (1:10) the 1 mM compound stocks prepared previously into the appropriate assay buffer (FAP: 50 mM Tris, 140 mM NaCl, pH 7.5/PREP: 25 mM Tris, 0.25 M NaCl, pH 7.5/DPPIV: 25 mM Tris, pH 8.0) to one row of a 96-well plate. • 3. […] Dilute the enzymes into their appropriate assay buffers. The final enzyme concentrations should be 0.1, 1.2, and 0.6 nM for DPPIV, FAP and PREP respectively. Add 180 μL to each well needed in columns 2-10. Column 1(A,B,C) should be prepared with 200 μl of appropriate assay buffer as control. Column 1(D,E,F,G,H) should be prepared with 20 μl of appropriate assay buffer and 180 ul enzyme as no inhibitor control. • 5. Add 20 μL of the compound of interest from the dilution plate prepared in step 2 to columns 2-10 of the assay plate where appropriate. Each sample should be tested in triplicate. Allow this to incubate for 10 minutes at room temperature, shaking the plate for the first two minutes. • 6. Add 10 μL of 20× substrate prepared in step 3 to each well and allow this to incubate for 15 minutes at room temperature, shaking the plate for the first two minutes. • 7. Read the fluorescence at λex: 380, λem: 460. (DPcore=[dAla|dSer|Gly]-[boroPro|Pro-nitrile], XXaa=alpha-amino acid)

Sequence of recombinant human prolyl oligopeptidase (PREP) (P48147 whole entry): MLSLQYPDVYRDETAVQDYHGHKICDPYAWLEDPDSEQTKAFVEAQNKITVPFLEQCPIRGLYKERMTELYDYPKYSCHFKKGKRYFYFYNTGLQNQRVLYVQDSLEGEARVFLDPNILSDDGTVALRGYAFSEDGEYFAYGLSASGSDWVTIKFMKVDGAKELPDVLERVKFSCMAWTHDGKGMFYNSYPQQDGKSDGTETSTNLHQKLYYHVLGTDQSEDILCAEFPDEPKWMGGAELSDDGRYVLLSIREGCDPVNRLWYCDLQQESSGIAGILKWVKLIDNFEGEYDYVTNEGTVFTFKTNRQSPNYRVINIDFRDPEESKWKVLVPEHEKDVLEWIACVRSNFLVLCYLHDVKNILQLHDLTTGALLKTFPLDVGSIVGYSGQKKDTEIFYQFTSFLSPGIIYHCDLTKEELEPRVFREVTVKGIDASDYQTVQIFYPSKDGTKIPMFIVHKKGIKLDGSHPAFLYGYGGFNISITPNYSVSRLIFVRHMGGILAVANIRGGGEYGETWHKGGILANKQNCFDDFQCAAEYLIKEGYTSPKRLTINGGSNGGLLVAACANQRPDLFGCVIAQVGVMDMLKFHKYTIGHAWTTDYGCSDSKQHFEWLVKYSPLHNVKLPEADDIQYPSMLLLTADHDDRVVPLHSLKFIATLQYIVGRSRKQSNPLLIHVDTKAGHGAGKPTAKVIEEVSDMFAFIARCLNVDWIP

SMILES | IC50 [nM]
C[C@@H](NC(=O)c1ccc(NNC(=O)CNC(=O)CN2CCN3CCN4CCN(CC2)CC(=O)[O][Lu]([O]C(=O)C3)[O]C(=O)C4)cc1)C(=O)N1CCC[C@H]1B(O)O [6487LU] | 34
C[C@@H](NC(=O)c1ccc(CNC(=O)CCCNC(=O)CN2CCN(CC(=O)O)CCN(CC(=O)O)CCN(CC(=O)O)CC2)cc1)C(=O)N1CCC[C@H]1B(O)O [compound 6591] | 103
C[C@@H](NC(=O)c1ccc(CNC(=O)CN2CCN3CCN4CCN(CC2)CC(=O)[O][Ga]([O]C(=O)C3)[O]C(=O)C4)nc1)C(=O)N1CCC[C@H]1B(O)O [6556GA] | 248
C[C@@H](NC(=O)c1ccc(NC(=O)CCCCNC(=O)CN2CCN(CC(=O)O)CCN(CC(=O)O)CCN(CC(=O)O)CC2)cc1)C(=O)N1CCC[C@H]1B(O)O [compound 6590] | 129
C[C@@H](NC(=O)c1ccc(NC(=O)CN2CCN3CCN4CCN(CC2)CC(=O)[O][Lu]([O]C(=O)C3)[O]C(=O)C4)cc1)C(=O)N1CCC[C@H]1B(O)O [6572LU] | 891

target: recombinant human fibroblast activation protein (FAP) (Homo sapiens (Human), UniProt Q12884); assay: In vitro assay fibroblast activation protein IC50 (Example 21); type: biochemical; conditions: not given
Method: as §1, §2

Sequence of recombinant human fibroblast activation protein (FAP) (Q12884 whole entry): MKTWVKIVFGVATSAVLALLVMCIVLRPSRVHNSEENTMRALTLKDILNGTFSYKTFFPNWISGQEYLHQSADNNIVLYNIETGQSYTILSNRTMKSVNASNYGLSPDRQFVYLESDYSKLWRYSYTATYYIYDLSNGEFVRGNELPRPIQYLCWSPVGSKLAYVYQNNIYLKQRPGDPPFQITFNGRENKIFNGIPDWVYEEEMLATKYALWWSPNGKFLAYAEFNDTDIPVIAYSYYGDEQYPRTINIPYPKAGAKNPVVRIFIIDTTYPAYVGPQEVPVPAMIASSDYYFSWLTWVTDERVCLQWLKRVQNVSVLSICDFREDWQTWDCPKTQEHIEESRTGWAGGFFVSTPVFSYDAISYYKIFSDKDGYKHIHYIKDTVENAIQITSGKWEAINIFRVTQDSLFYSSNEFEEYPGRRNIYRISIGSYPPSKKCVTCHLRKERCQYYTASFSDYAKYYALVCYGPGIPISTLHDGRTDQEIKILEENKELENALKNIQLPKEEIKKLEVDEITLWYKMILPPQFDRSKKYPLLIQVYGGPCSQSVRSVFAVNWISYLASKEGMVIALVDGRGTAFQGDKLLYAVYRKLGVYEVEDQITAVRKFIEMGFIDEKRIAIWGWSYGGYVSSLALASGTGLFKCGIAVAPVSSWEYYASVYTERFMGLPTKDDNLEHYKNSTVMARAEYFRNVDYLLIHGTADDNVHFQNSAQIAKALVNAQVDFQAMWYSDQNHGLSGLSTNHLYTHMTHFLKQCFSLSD

SMILES | IC50 [nM]
C[C@@H](NC(=O)c1ccc(NNC(=O)CCCNC(=O)CN2CCN3CCN4CCN(CC2)CC(=O)[O][Gd]([O]C(=O)C3)[O]C(=O)C4)nc1)C(=O)N1CCC[C@H]1B(O)O [6489 GD] | 1.1
C[C@@H](NC(=O)c1ccc(NNC(=O)CNC(=O)CN2CCN3CCN4CCN(CC2)CC(=O)[O][Lu]([O]C(=O)C3)[O]C(=O)C4)cc1)C(=O)N1CCC[C@H]1B(O)O [6487LU] | 8.8
C[C@@H](NC(=O)c1ccc(CNC(=O)CCCNC(=O)CN2CCN(CC(=O)O)CCN(CC(=O)O)CCN(CC(=O)O)CC2)cc1)C(=O)N1CCC[C@H]1B(O)O [compound 6591] | 0.36
C[C@@H](NC(=O)c1ccc(CNC(=O)CN2CCN3CCN4CCN(CC2)CC(=O)[O][Ga]([O]C(=O)C3)[O]C(=O)C4)nc1)C(=O)N1CCC[C@H]1B(O)O [6556GA] | 32
CC(C)[C@H](NC(=O)c1ccc(CNC(=O)CN2CCN3CCN4CCN(CC2)CC(=O)[O][Ga]([O]C(=O)C3)[O]C(=O)C4)cc1)C(=O)N[C@H](C)C(=O)N1CCC[C@H]1B(O)O [6967 GA] | 65
C[C@@H](NC(=O)c1ccc(NC(=O)CCCCNC(=O)CN2CCN(CC(=O)O)CCN(CC(=O)O)CCN(CC(=O)O)CC2)cc1)C(=O)N1CCC[C@H]1B(O)O [compound 6590] | 1.6
C[C@@H](NC(=O)c1ccc(NC(=O)CN2CCN3CCN4CCN(CC2)CC(=O)[O][Lu]([O]C(=O)C3)[O]C(=O)C4)cc1)C(=O)N1CCC[C@H]1B(O)O [6572LU] | 9.5
C[C@@H](NC(=O)c1ccc(NNC(=O)CN2CCN3CCN4CCN(CC2)CC(=O)[O][Ga]([O]C(=O)C3)[O]C(=O)C4)nc1)C(=O)N1CCC[C@H]1B(O)O [5183GA] | 46.1
C[C@@H](NC(=O)c1ccc(NNC(=O)CCCCCNC(=O)CN2CCN(CC(=O)O)CCN(CC(=O)O)CCN(CC(=O)O)CC2)nc1)C(=O)N1CCC[C@H]1B(O)O [compound 6958] | 3.2
C[C@@H](NC(=O)c1ccc(NNC(=O)CNC(=O)CN2CCN3CCN(CC(=O)O)CCN(CC2)CC(=O)[O][Cu][O]C(=O)C3)cc1)C(=O)N1CCC[C@H]1B(O)O [6487CU] | 8.8
C[C@@H](NC(=O)c1ccc(NNC(=O)CN2CCN3CCN(CC(=O)O)CCN(CC2)CC(=O)[O][Cu][O]C(=O)C3)cc1)C(=O)N1CCC[C@H]1B(O)O [5183BU] | 10.3
C[C@@H](NC(=O)c1ccc(NC(=O)CCNC(=O)CN2CCN3CCN4CCN(CC2)CC(=O)[O][Lu]([O]C(=O)C3)[O]C(=O)C4)cc1)C(=O)N1CCC[C@H]1B(O)O [6590LU] | 0.4
C[C@@H](NC(=O)c1ccc(NC(=O)CCCCNC(=O)CN2CCN3CCN4CCN(CC2)CC(=O)[O][Ga]([O]C(=O)C3)[O]C(=O)C4)cc1)C(=O)N1CCC[C@H]1B(O)O [6590 GA] | 15

same assay, conditions: Z-Gly-Pro-AMC; 1.2 nM enzyme

SMILES | IC50 [nM]
CC(C)[C@H](NC(=O)CNC(=O)CNC(=O)CNC(=O)CNC(=O)CCC(C(=O)O)N1CCN(CC(=O)O)CCN(CC(=O)O)CCN(CC(=O)O)CC1)C(=O)N[C@H](C)C(=O)N1CCC[C@H]1B(O)O (stereo partly shown) [compound 6868] ({DOTAGA}-GGGGV[dA]-boroPro) | 21
CC(C)[C@H](NC(=O)CCCCNC(=O)CN1CCN(CC(=O)O)CCN(CC(=O)O)CCN(CC(=O)O)CC1)C(=O)N[C@H](C)C(=O)N1CCC[C@H]1B(O)O [compound 6940, DOTA-PEN-Val-D-alaboroPro] | 5.2
CC(C)[C@H](NC(=O)CCCCCNC(=O)CN1CCN2CCN3CCN(CC1)CC(=O)[O][Ga]([O]C(=O)C2)[O]C(=O)C3)C(=O)N[C@H](C)C(=O)N1CCC[C@H]1B(O)O [6948GA, DOTA(Ga)-HEX-Val-Dala-boroPro] | 144
CC(C)[C@H](NC(=O)CNC(=O)CNC(=O)CNC(=O)CNC(=O)CNC(=O)CNC(=O)CN1CCN(CC(=O)O)CCN(CC(=O)O)CCN(CC(=O)O)CC1)C(=O)N[C@H](C)C(=O)N1CCC[C@H]1B(O)O [compound 6850] ({DOTA}-GGGGGGV[dA]-boroPro) | 21
